Reference: patent US20230036854A1, “HETEROCYCLIC SPIRO-COMPOUNDS AS AM2 RECEPTOR INHIBITORS” (THE UNIVERSITY OF SHEFFIELD, priority 2018, published 2023)

Each compound was assayed against T1, AM2 receptor (1321N1 cells transfected with CALCRL+RAMP3) (Homo sapiens, UniProt O60896+Q16602) (assay: AM2 receptor inhibition, LANCE cAMP agonist-antagonist competition assay). Settings: inhibition of AM induced cAMP activation, read-out: AM2 D2 protocol: pIC50 (converted).
T1 construct: host or cells: 1321N1 cells
T1 sequence (Q16602 23-461): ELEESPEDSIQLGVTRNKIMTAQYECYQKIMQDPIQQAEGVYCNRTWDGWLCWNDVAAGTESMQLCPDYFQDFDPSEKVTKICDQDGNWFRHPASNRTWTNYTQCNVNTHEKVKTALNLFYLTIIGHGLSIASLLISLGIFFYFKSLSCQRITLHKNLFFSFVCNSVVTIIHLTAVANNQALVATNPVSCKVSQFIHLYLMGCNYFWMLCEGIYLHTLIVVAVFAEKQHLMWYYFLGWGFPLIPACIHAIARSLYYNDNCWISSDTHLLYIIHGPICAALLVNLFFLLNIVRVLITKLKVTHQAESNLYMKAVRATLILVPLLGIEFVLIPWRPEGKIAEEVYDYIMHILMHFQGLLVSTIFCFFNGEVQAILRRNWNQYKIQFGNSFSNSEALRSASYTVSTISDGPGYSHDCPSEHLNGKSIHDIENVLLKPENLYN
T1 sequence (O60896 24-148): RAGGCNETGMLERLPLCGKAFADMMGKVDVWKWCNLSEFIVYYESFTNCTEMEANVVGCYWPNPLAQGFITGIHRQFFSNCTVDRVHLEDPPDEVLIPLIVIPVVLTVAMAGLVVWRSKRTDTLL
Type: cell-based
Summary of the method: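 cAMP was quantified by LANCE TR-FRET after an EC50 challenge with adrenomedullin (15 min, room temperature) in CALCRL+RAMP3-transfected 1321N1 cells (2500/well) that had first been exposed to compound for 30 min. Buffer was pH 7.4 HBSS with HEPES and BSA. Forskolin defined 100% stimulation and vehicle 0%.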

IC50 [nM]	SMILES
34.7	CCC1(C(=O)N(CC(=O)Nc2ccc3c(c2)C[C@@]2(C3)C(=O)Nc3ncccc32)Cc2ccccc2CNC)CCN(C(=O)c2cc(C(C)(C)C)n[nH]2)CC1 [Example 91, (R)-1-(3-(tert-Butyl)-1H-pyrazole-5-carbonyl)-4-ethyl-N-(2-((methylamino)methyl)benzyl)-N-(2-oxo-2-((2′-oxo-1,1′,2′,3-tetrahydrospiro[indene-2,3′-pyrrolo[2,3-b]pyridin]-5-yl)amino)ethyl)piperidine-4-carboxamide]
12.6	CCC1(C(=O)N(CC(=O)Nc2ccc3c(c2)C[C@@]2(C3)C(=O)Nc3ncccc32)Cc2ccccc2CNC)CCN(C(=O)CN2CCC(F)(F)CC2)CC1 [Example 95, (R)-1-(2-(4,4-Difluoropiperidin-1-yl)acetyl)-4-ethyl-N-(2-((methylamino)methyl)benzyl)-N-(2-oxo-2-((2′-oxo-1,1′,2′,3-tetrahydrospiro[indene-2,3′-pyrrolo[2,3-b]pyridin]-5-yl)amino)ethyl)piperidine-4-carboxamide]
24.5	CCC1(C(=O)N(CC(=O)Nc2ccc3c(c2)C[C@@]2(C3)C(=O)Nc3ncccc32)Cc2ccccc2CNC)CCN(C(=O)COCCOCCOCCOCCOC)CC1 [Example 96, (R)-4-Ethyl-1-(2,5,8,11,14-pentaoxahexadecan-16-oyl)-N-(2-((methylamino)methyl)benzyl)-N-(2-oxo-2-((2′-oxo-1,1′,2′,3-tetrahydrospiro[indene-2,3′-pyrrolo[2,3-b]pyridin]-5-yl)amino)ethyl)piperidine-4-carboxamide]

More lines, now with the values behind:

SMILES	IC50 [nM]
CCC1(C(=O)N(CC(=O)Nc2ccc3c(c2)C[C@@]2(C3)C(=O)Nc3ncccc32)Cc2ccccc2CNC)CCN(C(=O)C2CCC2)CC1 [Example 89, (R)-1-(Cyclobutanecarbonyl)-4-ethyl-N-(2-((methylamino)methyl)benzyl)-N-(2-oxo-2-((2′-oxo-1,1′,2′,3-tetrahydrospiro[indene-2,3′-pyrrolo[2,3-b]pyridin]-5-yl)amino)ethyl)piperidine-4-carboxamide]	5.5
CCC1(C(=O)N(CC(=O)Nc2ccc3c(c2)C[C@@]2(C3)C(=O)Nc3ncccc32)Cc2ccccc2CNC)CCN(C(=O)CN2CCOCC2)CC1 [Example 90, (R)-4-Ethyl-N-(2-((methylamino)methyl)benzyl)-1-(2-morpholinoacetyl)-N-(2-oxo-2-((2′-oxo-1,1′,2′,3-tetrahydrospiro[indene-2,3′-pyrrolo[2,3-b]pyridin]-5-yl)amino)ethyl)piperidine-4-carboxamide]	22.9
CCC1(C(=O)N(CC(=O)Nc2ccc3c(c2)C[C@@]2(C3)C(=O)Nc3ncccc32)Cc2ccccc2CNC)CCN(C(=O)c2cc(C(C)(C)C)nn2C)CC1 [Example 92, (R)-1-(3-(tert-Butyl)-1-methyl-1H-pyrazole-5-carbonyl)-4-ethyl-N-(2-((methylamino)methyl)benzyl)-N-(2-oxo-2-((2′-oxo-1,1′,2′,3-tetrahydrospiro[indene-2,3′-pyrrolo[2,3-b]pyridin]-5-yl)amino)ethyl)piperidine-4-carboxamide]	13.2
CCC1(C(=O)N(CC(=O)Nc2ccc3c(c2)C[C@@]2(C3)C(=O)Nc3ncccc32)Cc2ccccc2CNC)CCN(C(=O)[C@@H]2COCCN2)CC1 [Example 93, 4-Ethyl-N-(2-((methylamino)methyl)benzyl)-1-((S)-morpholine-3-carbonyl)-N-(2-oxo-2-(((R)-2′-oxo-1,1′,2′,3-tetrahydrospiro[indene-2,3′-pyrrolo[2,3-b]pyridin]-5-yl)amino)ethyl)piperidine-4-carboxamide]	18.6
CCC1(C(=O)N(CC(=O)Nc2ccc3c(c2)C[C@@]2(C3)C(=O)Nc3ncccc32)Cc2ccccc2CNC)CCN(C(=O)[C@H](C)NC)CC1 [Example 94, 4-Ethyl-N-(2-((methylamino)methyl)benzyl)-1-((S)-2-(methylamino)propanoyl)-N-(2-oxo-2-(((R)-2′-oxo-1,1′,2′,3-tetrahydrospiro[indene-2,3′-pyrrolo[2,3-b]pyridin]-5-yl)amino)ethyl)piperidine-4-carboxamide]	15.1
